The values that follow come from patent publication US20250186436A1 (4E Therapeutics, Inc., priority 2021, published 2025).

By Papp A→B is commonly meant the apparent permeability from the apical to the basolateral side of a cell layer. Low values mean poor permeation, high ones ready permeation. As usually defined, the Papp B→A is the apparent permeability from the basolateral to the apical side of a cell layer. As a reminder, the efflux ratio is a quotient of directional permeabilities that is used to spot active efflux. What is called half-life is the time needed for the level to fall by half in the phase considered. Read a low half-life as fast loss.

In data set [1] the target is T1, recombinant full length human kinase MNK2 (Homo sapiens, UniProt Q9HBH9).
T1 construct: the recombinant full length human kinase MNK2; made in house; host or cells: insect cells
T1 sequence (Q9HBH9 whole entry): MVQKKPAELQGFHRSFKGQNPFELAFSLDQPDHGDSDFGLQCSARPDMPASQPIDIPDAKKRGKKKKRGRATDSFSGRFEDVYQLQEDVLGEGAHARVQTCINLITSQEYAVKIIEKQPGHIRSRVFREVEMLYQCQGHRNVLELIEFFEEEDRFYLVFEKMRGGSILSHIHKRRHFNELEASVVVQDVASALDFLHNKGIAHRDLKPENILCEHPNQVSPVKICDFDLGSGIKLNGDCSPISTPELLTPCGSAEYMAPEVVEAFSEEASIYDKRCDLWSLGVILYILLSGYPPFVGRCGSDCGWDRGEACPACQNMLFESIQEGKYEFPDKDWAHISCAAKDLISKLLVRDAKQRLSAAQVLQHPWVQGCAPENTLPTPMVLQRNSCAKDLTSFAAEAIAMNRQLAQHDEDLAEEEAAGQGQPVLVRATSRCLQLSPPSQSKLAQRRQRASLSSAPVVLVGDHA
Put plainly: MNK2 radiometric kinase activity assay. Type of data set: biochemical. The settings on record: radiometric activity assay; read-out: MNK2.

Data set [2] concerns P-gp (human MDR1, ABCB1). Put plainly: MDCK-MDR1 permeability (blood-brain barrier permeability). The conditions noted are these: dog.
The target of data set [3] is T2, recombinant full-length human kinase MNK1 (Homo sapiens, UniProt Q9BUB5).
T2 construct: the recombinant full-length human kinase MNK1; made in house; host or cells: insect cells
T2 sequence (Q9BUB5 whole entry): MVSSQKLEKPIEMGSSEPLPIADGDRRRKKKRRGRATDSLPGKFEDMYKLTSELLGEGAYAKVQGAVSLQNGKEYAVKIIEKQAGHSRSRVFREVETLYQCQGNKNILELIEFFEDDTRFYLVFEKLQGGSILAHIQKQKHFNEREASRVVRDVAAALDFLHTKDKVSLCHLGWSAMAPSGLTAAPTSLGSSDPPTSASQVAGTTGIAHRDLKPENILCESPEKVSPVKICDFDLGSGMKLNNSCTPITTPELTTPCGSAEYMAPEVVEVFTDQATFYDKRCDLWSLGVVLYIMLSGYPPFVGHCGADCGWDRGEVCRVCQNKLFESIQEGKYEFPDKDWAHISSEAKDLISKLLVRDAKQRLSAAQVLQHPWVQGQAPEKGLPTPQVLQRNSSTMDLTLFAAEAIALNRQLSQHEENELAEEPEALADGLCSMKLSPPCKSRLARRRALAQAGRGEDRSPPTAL
As to the kind of experiment: MNK1 radiometric kinase activity assay. The conditions noted are these: radiometric activity assay; read-out: MNK1. The format is biochemical.

Data set [4] is described as follows: Liver microsome stability. The conditions noted are these: mouse, liver microsomes. On the technique in general: Microsomes from liver hold many membrane-bound enzymes, among them those of drug oxidation.
The test system of data set [5] is eIF4E phosphorylation at Serine 209 in HEK 293 cells. As to the kind of experiment: eIF4E phosphorylation in HEK 293 cells (phospho-specific antibody, fluorescent plate reader).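 Also: Well-level p-eIF4E immunofluorescence normalized to DAPI signal, expressed as percent eIF4E phosphorylation, with IC50 derived from concentration-response curves.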 Type of data set: cell-based. The conditions noted are these: Homo sapiens, HEK293; eIF4E phosphorylation at Serine 209, 2 hours exposure; read-out: HEK 293 cell.
Data set [6] concerns P-gp (human MDR1, ABCB1). As to the kind of experiment: in vitro. The conditions noted are these: dog, MDCK-MDR1.
Data set [7] concerns Wistar rats. As to the kind of experiment: Intravenous self-administration with oxycodone and saline regimen. The format is in vivo. The conditions noted are these: Wistar rats; for Mean Difference, Šídák's multiple comparisons test: numbers of infusions. As to the method: Ten male and eleven female Wistar rats (Charles River, Hollister, CA) were used in this study. Rats were housed in groups of 2-3 per cage prior to surgery, and then individually housed to protect their catheters, in a temperature-controlled (22° C.) vivarium on a 12/12h light/dark cycle (lights off at 8:00 AM) with ad libitum access to food and water. The rats acclimated to the animal facility for at least 7 days before surgery. All procedures adhered to the National Institutes of Health Guide for the Care and Use of Laboratory Animals and were approved by the Institutional Animal Care and Use Committee of The Scripps Research Institute.
For surgery, rats were anesthetized with 2 to 3% isoflurane. They were implanted with a silastic catheter (0.3 mm i.d.×0.64 mm o.d.; Dow Corning Co. Midland, MI) into the right external jugular vein under aseptic conditions. The distal end of the catheter was subcutaneously threaded to the back of the rat where it exited via a metal guide cannula (22G; Plastics One Inc., Roanoke, VA) that was anchored at the back of the rat and closed with a small plastic cap and metal cover cap to keep the inside part of the catheter clean and protected (Caine S B, et al. “Effects of dopamine D-1 and D-2 antagonists on cocaine self-administration under different schedules of reinforcement in the rat” J Pharmacol Exp Ther. 270(1):209-18 (1994); Wee S, et al. “Effects of dose and session duration on cocaine self-administration in rats” J Pharmacol Exp Ther. 320(3):1134-43 (2007); Zorrilla E P, et al. “Extended access cocaine self-administration differentially activates dorsal raphe and amygdala corticotropin-releasing factor systems in rats” Addict Biol. 17(2):300-8 (2012); Valtcheva M V, et al. “Surgical extraction of human dorsal root ganglia from organ donors and preparation of primary sensory neuron cultures” Nat Protoc. 11:1877-1888 (2016)). All incisions were closed using veterinary tissue adhesive. After surgery, rats were given analgesic (Flunixin, 2.5 mg/kg s.c.).
Rats were allowed 5-7 days for recovery prior to self-administration.
The patency of catheters in the rats was tested using an ultra-short-acting barbiturate methohexital sodium (Brevital, Eli Lilly, Indianapolis, 1N, 10 mg/mL, 2 mg/rat) every 10-12 days during the study. Generally, a total loss of muscle tone within 3 s after a methohexital sodium injection indicates the patency of a catheter. Any animal that failed the test was excluded from the study.
During experimental sessions, each rat was placed in a standard operant chamber, which was placed in a light- and sound-attenuating cubicle (28×26×20 cm; Med Associates Inc., St. Albans, VT). The front door and the back wall of the chamber were made of transparent plastic, and the other walls were opaque metal. The chamber had two retractable response levers mounted on one side of the opaque walls. A stimulus light was mounted above each lever. A drug injection was delivered by a syringe pump (Razel Scientific Instruments, Georgia, VT) located on top of the cubicle. Experimental sessions were controlled and recorded by a PC computer with custom interface and software in the experimental room.
Experimental sessions were conducted once a day, 5-7 days a week during the dark (active) cycle. After being flushed with 0.9% saline, a rat's indwelling catheter was connected to a tube that exited the chamber through a metal spring and a swivel and was connected to a syringe pump. After the drug delivery system was connected to the rat, the chamber was closed, and the 2 hr session was started immediately. The start of a session was signaled by the presentation of two response levers into the chamber. […] During an injection, stimulus lights above both levers were illuminated and lasted throughout a time-out period (20 s) that followed each injection. Pressing the left lever was counted but had no other programmed consequences. […]

SMILES strings stand for the structures.

Take `Cc1cc(Nc2cc(N)ncn2)c(=O)n2c1C(=O)NC21CC2(CCCCC2)C1` [4ET-01-020, 6″-((6-aminopyrimidin-4-yl)amino)-8″-methyl-2″H-dispiro[cyclohexane-1,1′-cyclobutane-3′,3″-imidazo[1,5-a]pyridine]-1″,5″-dione]: the IC50 in data set [1] was determined as 3 nM. Moreover, in data set [2], the Papp A→B at 5 uM came out at 46.7 ×10⁻⁶ cm/s, the Papp B→A at 5 uM came to 70.7 ×10⁻⁶ cm/s and the efflux ratio at 5 uM stood at 1.5. In data set [3], the IC50 was 36 nM. Besides, the half-life in data set [4] turned out to be 0.793 h. Also, the IC50 in data set [5] came to 4.3 nM.

With `Cc1cc(Nc2cc(N)ncn2)c(=O)n2c1C(=O)NC21CCCC2(CC2)C1` (stereo not shown) [4ET-01-042, 6″-((6-Aminopyrimidin-4-yl)amino)-8″-methyl-2″H-dispiro[cyclopropane-1,1′-cyclohexane-3′,3″-imidazo[1,5-a]pyridine]-1″,5″-dione], in data set [1], the IC50 stood at 2 nM. For the same compound, in data set [2], the Papp A→B at 5 uM worked out at 50.4 ×10⁻⁶ cm/s, the Papp B→A at 5 uM worked out at 68.9 ×10⁻⁶ cm/s and the efflux ratio at 5 uM was found to be 1.4. Also, the IC50 in data set [3] was 16.5 nM. For the same compound, the half-life in data set [4] worked out at 1.88 h. Besides, the IC50 in data set [5] was 0.8 nM.

Consider `Cc1cc(Nc2cc(NC(=O)C3CC3)ncn2)c(=O)n2c1C(=O)NC21CC2(CCC2)C1` [4ET-03-043, N-(6-((8″-methyl-1″,5″-dioxo-1″,5″-dihydro-2″H-dispiro[cyclobutane-1,1′-cyclobutane-3′,3″-imidazo[1,5-a]pyridin]-6″-yl)amino)pyrimidin-4-yl)cyclopropanecarboxamide], for which the IC50 was 1.7 nM in data set [1], 44.9 nM in data set [3] and 0.9 nM in data set [5]. In data set [2], the Papp A→B at 5 uM is 27.4 ×10⁻⁶ cm/s. This compound also registered a Papp B→A at 5 uM in data set [2] of 56.3 ×10⁻⁶ cm/s. Also, the efflux ratio at 5 uM in data set [2] came out at 2.1. The compound also gave a half-life in data set [4] of 3.35 h.

On to `Cc1cc(Nc2cc(NC(=O)C3CC3)ncn2)c(=O)n2c1C(=O)NC21CCC2(CC1)CNC2` [4ET-03-049, N-(6-((8″-methyl-1″,5″-dioxo-1″,5″-dihydro-2″H-dispiro[azetidine-3,1′-cyclohexane-4′,3″-imidazo1[1,5-a]pyridin]-6″-yl)amino)pyrimidin-4-yl)cyclopropanecarboxamide], for which the IC50 in data set [1] was 2.8 nM. Besides, in data set [2], the Papp A→B at 5 uM came out at 0.3 ×10⁻⁶ cm/s, the Papp B→A at 5 uM is 0.7 ×10⁻⁶ cm/s and the efflux ratio at 5 uM was 2.1. Besides, the IC50 in data set [3] turned out to be 80 nM. Moreover, the half-life in data set [4] amounted to 2.43 h. The IC50 in data set [5] was 110 nM.

In the case of `Cc1cc(Nc2cc(NC(=O)[C@H]3[C@@H]4CNC[C@@H]43)ncn2)c(=O)n2c1C(=O)NC21CCC2(CC2)CC1` [4ET-03-056, (1R,5S,6r)-N-(6-((8″-methyl-1″,5″-dioxo-1″,5″-dihydro-2″H-dispiro[cyclopropane-1,1′-cyclohexane-4′,3″-imidazo[1,5-a]pyridin]-638-yl)amino)pyrimidin-4-yl)-3-azabicyclo[3.1.0]hexane-6-carboxamide], the IC50 in data set [1] is 3.5 nM. In addition, in data set [2], the Papp A→B at 5 uM was 0.5 ×10⁻⁶ cm/s, the Papp B→A at 5 uM was 15.9 ×10⁻⁶ cm/s and the efflux ratio at 5 uM was 31.8. For the same compound, the IC50 in data set [3] came to 51.8 nM. The compound also displayed a half-life in data set [4] of 2.95 h. Further, the IC50 in data set [5] amounted to 11.1 nM.

For the compound `Cc1cc(Nc2cc(NC(=O)C3CC4(CNC4)C3)ncn2)c(=O)n2c1C(=O)NC21CCC2(CC2)CC1` [4ET-03-057, N-(6-((8″-methyl-1″,5″-dioxo-1″,5″-dihydro-2″H-dispiro[cyclopropane-1,1′-cyclohexane-4′,3″-imidazo[1,5-a]pyridin]-638-yl)amino)pyrimidin-4-yl)-2-azaspiro[3.3]heptane-6-carboxamide], the IC50 in data set [1] came to 3.4 nM; in data set [3] it was 61.6 nM; in data set [5] it was 8.7 nM. This compound also registered a Papp A→B in data set [6] of 0.3 ×10⁻⁶ cm/s. This compound also showed a Papp B→A in data set [6] of 1.1 ×10⁻⁶ cm/s. This compound registered a half-life in data set [4] of 3.65 h.

Turning to `Cc1cc(Nc2cc(N)ncn2)c(=O)n2c1C(=O)NC21CCC2(CC1)CC2(F)F` (stereo not shown) [4ET-03-068, 6″-((6-aminopyrimidin-4-yl)amino)-2,2-difluoro-8″-methyl-2″H-dispiro[cyclopropane-1,1′-cyclohexane-4′,3″-imidazo[1,5-a]pyridine]-1″,5″-dione], the figures for the IC50 in data set [1], in data set [3] and in data set [5] were 1.5 nM, 25.3 nM and 3.4 nM, respectively. The Papp A→B at 5 uM in data set [2] amounted to 18.7 ×10⁻⁶ cm/s. For the same compound, the Papp B→A at 5 uM in data set [2] amounted to 71 ×10⁻⁶ cm/s. For the same compound, in data set [2], the efflux ratio at 5 uM came to 3.8. This compound displayed a half-life in data set [4] of 4.93 h.

`Cc1cc(Nc2cc(NCCO)ncn2)c(=O)n2c1C(=O)NC21CCC2(CC2)CC1` [4ET-03-074, 6″-((6-((2-hydroxyethyl)amino)pyrimidin-4-yl)amino)-8″-methyl-2″H-dispiro[cyclopropane-1,1′-cyclohexane-4′,3″-imidazo[1,5-a]pyridine]-1″,5″-dione]: the IC50 in data set [1] is 3.1 nM. Besides, in data set [2], the Papp A→B at 5 uM was 7.6 ×10⁻⁶ cm/s, the Papp B→A at 5 uM was 58.1 ×10⁻⁶ cm/s and the efflux ratio at 5 uM amounted to 7.6. In addition, the IC50 in data set [3] worked out at 45.9 nM. This compound also had a half-life in data set [4] of 1.87 h. Besides, in data set [5], the IC50 came out at 11.3 nM.

For the compound `COc1ccc2c3c1O[C@H]1C(=O)CC[C@@]4(O)[C@@H](C2)N(C)CC[C@]314` [oxycodone, oxycondone, reference compound], the “numbers of infusions, multiple comparisons test: oxycodone and subsequent saline” value in data set [7] (0.15 mg/kg oxycodone, both times this occurred) is reported as “significant differences”. Further, the “Mean Difference, Šídák's multiple comparisons test” value was 6.547 in data set [7] (0.15 mg/kg oxycodone vs. saline (3rd comparison, first occurrence)) and 9.006 in data set [7] (0.15 mg/kg oxycodone vs. saline (6th comparison, second occurrence)).
